Results reported in paper PMC4555179, “Molecular insights into Zeaxanthin-dependent quenching in higher plants” (Scientific Reports, 2015).

Assays:
CP24 (CP24-his tag) [1] = target: T1, CP24 (CP24-his tag) (Arabidopsis thaliana, UniProt Q9LMQ2); assay: co-purified pigment, HPLC and absorption fit of acetone extract; format: binding; settings: complex from control plants; endogenous pigment
T1 construct: gene LHCB6; mature thylakoid protein (transit peptide removed in vivo), C-terminal His tag kept; purified from plant thylakoids by sucrose gradient (Band 2) and Ni column; monomer
T1 sequence (Q9LMQ2 50-258): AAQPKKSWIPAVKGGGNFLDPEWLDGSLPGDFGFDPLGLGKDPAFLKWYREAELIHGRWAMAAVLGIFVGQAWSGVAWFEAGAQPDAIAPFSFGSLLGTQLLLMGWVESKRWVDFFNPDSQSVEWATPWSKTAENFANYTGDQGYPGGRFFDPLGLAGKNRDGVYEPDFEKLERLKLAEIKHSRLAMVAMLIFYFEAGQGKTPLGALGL

CP24 (CP24-his tag) [2] = target: T1, CP24 (CP24-his tag); assay: as above; format: binding; settings: complex from light-stressed plants (30 min high light), pH 5.5, 4 °C; endogenous pigment; peripheral, not in internal L1/L2 sites
Source text: co-purified pigment, HPLC and absorption fit of acetone extract on CP24 (CP24-his tag)

Row | SMILES | V (CP24 (CP24-his tag) [1]) | Z (CP24 (CP24-his tag) [2])
1 | CC1=C[C@H](O)CC(C)(C)[C@H]1/C=C/C(C)=C/C=C/C(C)=C/C=C/C=C(C)/C=C/C=C(C)/C=C/C1=C(C)C[C@@H](O)CC1(C)C [L, lutein] | 0.89 ± 0.02 mol per monomer (normalised to 10 Chl) | –
2 | CC(/C=C/C=C(C)/C=C/[C@@]12O[C@]1(C)C[C@@H](O)CC2(C)C)=C\C=C\C=C(C)\C=C\C=C(C)\C=C\[C@@]12O[C@]1(C)C[C@@H](O)CC2(C)C [V, violaxanthin] | 0.89 ± 0.02 mol per monomer (normalised to 10 Chl) | –
3 | CC1=C(/C=C/C(C)=C/C=C/C(C)=C/C=C/C=C(C)/C=C/C=C(C)/C=C/C2=C(C)C[C@@H](O)CC2(C)C)C(C)(C)C[C@H](O)C1 [Z, zeaxanthin] | – | 0.20 ± 0.00 mol per monomer (normalised to 10 Chl)
